Experimental data reported in patent publication US9873693B2 (Sunesis Pharmaceuticals, Inc., priority 2006, dated 2018).
Read-outs that look alike come from different tables or passages of the source.

Assays:
phospho-akt (Thr308) = phospho-akt (Thr308) MSD ELISA in PC-3 cells; format: cell-based; details: Homo sapiens; for EC50: PC-3, 2 h; for inhibition at 1 µM / inhibition at 10 µM: read-out: Percent Inhibition of phospho-Akt (308) By MSD ELISA
Procedure: PC-3 cells were harvested by trypsin and counted. Cells were plated in coated 96-well flat bottom plates (plate 15,000 cells/well in 100 ul growth media (10% FBS, 1× pen-strep) an place in an incubator overnight.
Subject inhibitors were stocked at 50 mM, then diluted to 30 mM (4.8 μl cpd plus […] DMSO) in 100% DMSO. Three-fold dilutions were performed from 30 mM stock. (4 μl into 8 ul 100% DMSO). Aliquots of 1.0 μl of inhibitor solution were transferred into SF Medium (using deep well block).
Control wells were prepared as follows. For DMSO high controls, 1.0 μl of 100% DMSO was added into 1.0 ml SF.
MSD plates were blocked for 1 hour by adding 150 μl of Blocking Solution (3% BSA) to each well. The MSD plates were washed 4× with TBST, and 50 μl lysates were transferred to MSD plate and place on plate shaker shake at 4 degrees O/N, light shaking (speed 3.5). The plate was washed 4× with TBST.
25 μl of Ab detection solution was added to each well. The plate was sealed and incubated 1 hr RT, light shaking (speed 3.5). The plate was washed 4 times with TBST. 150 μl of Read Buffer was added (5 mls 4×MSD Read Buffer+15 mls water). Finally the plate was read immediately on the MSD plate reader.

phosphorylated PDK1 = phosphorylated PDK1 (Homo sapiens (Human), UniProt O15530); assay: PDK1 kinase assay (coupled PDK1/AKT/FAM-crosstide, IMAP); format: biochemical; details: 0.5 nM phosphorylated PDK1, 24 μM ATP; read-out: Inhibition of phospo-PDK1 in vitro IC50
[1] = PC-3 cells, 2 hours, no serum, read-out: Inhibition of P308 Akt in cells using MSD EC50
[2] = PC-3 cells, 2 hours, no serum, read-out: Reduction of Cellular Levels of Akt p308 By MSD ELISA (EC50 μM)
[3] = read-out: Inhibition of P308 Akt in cells using MSD EC50
[4] = read-out: Reduction of Cellular Levels of Akt p308 By MSD ELISA (EC50 μM)

phosphorylated PDK1, sequence (O15530 51-360): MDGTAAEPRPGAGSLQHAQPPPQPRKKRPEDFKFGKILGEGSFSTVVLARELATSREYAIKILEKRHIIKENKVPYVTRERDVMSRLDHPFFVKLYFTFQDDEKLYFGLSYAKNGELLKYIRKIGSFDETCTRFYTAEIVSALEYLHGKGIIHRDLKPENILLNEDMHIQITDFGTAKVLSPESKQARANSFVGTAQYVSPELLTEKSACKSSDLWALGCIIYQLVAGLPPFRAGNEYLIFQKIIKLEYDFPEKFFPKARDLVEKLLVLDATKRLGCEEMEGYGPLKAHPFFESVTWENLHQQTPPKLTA

SMILES	EC50 (phospho-akt (Thr308); [1]) [µM]	EC50 (phospho-akt (Thr308); [2]) [µM]	IC50 (phosphorylated PDK1) [µM]	EC50 (phospho-akt (Thr308); [3]) [µM]	EC50 (phospho-akt (Thr308); [4]) [µM]	inhibition at 1 µM (phospho-akt (Thr308); PC-3 cells) [%]	inhibition at 10 µM (phospho-akt (Thr308); PC-3 cells) [%]
NCc1cnc2[nH]cc(-c3cccc(CNC(=O)c4cccn(Cc5ccc(F)c(F)c5)c4=O)c3)c2c1 [Cpd 243]	< 1	1 to 5	< 0.5	–	–	–	–
CN(C)C(=O)c1cc(-c2c[nH]c3ncccc23)cc(CNC(=O)c2cccn(Cc3ccc(F)c(F)c3)c2=O)n1 [Cpd 181]	1 to 5	–	< 0.5	–	–	–	–
NC(=O)c1cnc2[nH]cc(-c3cccc(CNC(=O)c4cccn(Cc5ccc(F)c(F)c5)c4=O)c3)c2c1 [Cpd 26]	< 1	< 1	< 0.5	–	–	–	–
O=C(NCc1cccc(-c2c[nH]c3ncccc23)c1)c1cccn(Cc2ccc(Cl)c(Cl)c2)c1=O [Cpd 324]	> 5	> 5	< 0.5	–	–	–	–
C[Si](C)(C)CCOCn1nc(NC(=O)c2cccn(Cc3ccc(F)c(F)c3)c2=O)c2cc(-c3c[nH]c4ncccc34)ccc21 [Cpd 36]	–	–	< 0.5	> 5	> 5	–	–
CCNC(=O)C[C@@H](NC(=O)c1cccn(Cc2ccc(F)c(F)c2)c1=O)c1ccc(-c2c[nH]c3ncccc23)s1 [Cpd 31]	1 to 5	1 to 5	< 0.5	–	–	–	–
O=C(NCc1cccc(-c2c[nH]c3ncc(Br)cc23)c1)c1cccn(Cc2ccc(F)c(F)c2)c1=O [Cpd 330]	1 to 5	–	< 0.5	–	–	–	–
O=C(NCc1cccc(-c2c[nH]c3cccnc23)c1)c1cccn(Cc2ccc(F)c(F)c2)c1=O [Cpd 241]	–	–	0.5 to 10	–	–	< 25	25 to 75
O=C(NCc1cccc(-c2c[nH]c3ncc(-c4cccs4)cc23)c1)c1cccn(Cc2ccc(F)c(F)c2)c1=O [Cpd 51]	1 to 5	–	< 0.5	–	–	–	–
CNC(=O)c1cnc2[nH]cc(-c3ccc(CNC(=O)c4cccn(Cc5ccc(F)c(F)c5)c4=O)s3)c2c1 [Cpd 40]	1 to 5	1 to 5	< 0.5	–	–	–	–
C[C@@H](c1ccc(Cl)cc1)n1cc(Cl)cc(C(=O)NCc2noc(-c3c[nH]c4ncccc34)n2)c1=O [Cpd 315]	< 1	–	< 0.5	–	–	25 to 75	> 75
O=C(NCc1cc(-c2c[nH]c3ncccc23)cc(C(F)F)n1)c1cccn(Cc2ccc(F)c(F)c2)c1=O [Cpd 208]	< 1	–	< 0.5	–	–	–	–
O=C(NCc1cccc(-c2c[nH]c3ncc(-c4ccoc4)cc23)c1)c1cccn(Cc2ccc(F)c(F)c2)c1=O [Cpd 53]	< 1	–	< 0.5	–	–	–	–
O=C(NCc1ccnc(-c2c[nH]c3ncccc23)c1)c1cccn(Cc2ccc(F)c(F)c2)c1=O [Cpd 285]	1 to 5	1 to 5	< 0.5	–	–	–	–
O=C1Nc2cc(/C=C/CNC(=O)c3cccn(Cc4cc(F)c(F)c(F)c4)c3=O)ccc2/C1=C/c1ncc[nH]1 [Cpd 195]	< 1	–	< 0.5	–	–	–	–
COCCNC(=O)C[C@@H](NC(=O)c1cccn(Cc2ccc(F)c(F)c2)c1=O)c1ccc(-c2c[nH]c3ncccc23)s1 [Cpd 34]	1 to 5	1 to 5	< 0.5	–	–	–	–
CCCNC(=O)c1cnc2[nH]cc(-c3cccc(CNC(=O)c4cccn(Cc5ccc(F)c(F)c5)c4=O)c3)c2c1 [Cpd 29]	< 1	< 1	< 0.5	–	–	–	–
CCCNC(=O)C[C@@H](NC(=O)c1cccn(Cc2ccc(F)c(F)c2)c1=O)c1ccc(-c2c[nH]c3ncccc23)s1 [Cpd 32]	–	–	< 0.5	1 to 5	1 to 5	–	–
O=C(NCc1cccc(-c2c[nH]c3nccnc23)c1)c1cccn(Cc2ccc(F)c(F)c2)c1=O [Cpd 13]	1 to 5	–	< 0.5	–	–	25 to 75	> 75
O=C(NCc1ccc(-c2c[nH]c3nccc(Cl)c23)s1)c1cccn(Cc2ccc(F)c(F)c2)c1=O [Cpd 55]	1 to 5	–	< 0.5	–	–	–	–

SMILES	EC50 (phospho-akt (Thr308); [1]) [µM]	EC50 (phospho-akt (Thr308); [2]) [µM]	IC50 (phosphorylated PDK1) [µM]	EC50 (phospho-akt (Thr308); [3]) [µM]	EC50 (phospho-akt (Thr308); [4]) [µM]	inhibition at 1 µM (phospho-akt (Thr308); PC-3 cells) [%]	inhibition at 10 µM (phospho-akt (Thr308); PC-3 cells) [%]
O=C1Nc2cc(/C=C/CNC(=O)c3cccn(Cc4cc(F)c(F)c(F)c4)c3=O)ccc2/C1=C\c1nccs1 [Cpd 202]	1 to 5	–	< 0.5	–	–	–	–
O=C(NCc1cccc(-c2c[nH]c3ncc(-c4ccncc4)cc23)c1)c1cccn(Cc2ccc(F)c(F)c2)c1=O [Cpd 48]	< 1	–	< 0.5	–	–	–	–
COC(=O)[C@H](COc1ccc2[nH]c(=O)[nH]c2c1)NC(=O)c1cccn(Cc2cc(F)c(F)c(F)c2)c1=O [Cpd 153]	< 1	–	< 0.5	–	–	–	–
O=C(NCc1cccc(-c2n[nH]c3ncccc23)c1)c1cccn(Cc2ccc(F)c(F)c2)c1=O [Cpd 6]	1 to 5	–	< 0.5	–	–	25 to 75	25 to 75
O=C(NCc1ccc(-c2ccc3cn[nH]c3c2)s1)c1cccn(Cc2ccc(F)c(F)c2)c1=O [Cpd 59]	1 to 5	–	< 0.5	–	–	–	–
O=C(NCc1cc(-c2c[nH]c3ncccc23)ccc1F)c1cccn(Cc2ccc(F)c(F)c2)c1=O [Cpd 278]	–	–	< 0.5	–	–	< 25	25 to 75
O=C(NC(COc1ccc2[nH]c(=O)[nH]c2c1)c1ccc(OCc2ccccc2)cc1)c1cccn(Cc2cc(F)c(F)c(F)c2)c1=O (stereo not drawn) [Cpd 186]	–	–	< 0.5	> 5	–	–	–
O=C(NCc1cccc(-c2c[nH]c3ncc(-c4cccnc4)cc23)c1)c1cccn(Cc2ccc(F)c(F)c2)c1=O [Cpd 47]	< 1	–	< 0.5	–	–	–	–
O=C(NCc1noc(-c2c[nH]c3ncccc23)n1)c1cccn(Cc2ccc(Cl)c(Cl)c2)c1=O [Cpd 312]	1 to 5	–	< 0.5	–	–	25 to 75	> 75
O=C(NC(COc1ccc2[nH]c(=O)[nH]c2c1)c1ccc(F)cc1)c1cccn(Cc2ccc(F)c(F)c2)c1=O (stereo not drawn) [Cpd 147]	< 1	< 1	< 0.5	–	–	–	–
O=C(NC/C=C/c1ccc2[nH]c(=O)[nH]c2c1)c1cccn(Cc2ccc(F)c(F)c2)c1=O [Cpd 160]	> 5	–	< 0.5	–	–	–	–
CN(C)C(=O)c1cnc2[nH]cc(-c3cccc(CNC(=O)c4cccn(Cc5ccc(F)c(F)c5)c4=O)c3)c2c1 [Cpd 27]	< 1	< 1	< 0.5	–	–	–	–
CC(C)Oc1cc(CNC(=O)c2cccn(Cc3ccc(F)c(F)c3)c2=O)cc(-c2c[nH]c3ncc(F)cc23)c1 [Cpd 98]	1 to 5	–	< 0.5	–	–	–	–
O=C(N[C@H](CO)c1nnc(-c2c[nH]c3ncccc23)o1)c1cccn(Cc2ccc(F)c(F)c2)c1=O [Cpd 284]	1 to 5	1 to 5	< 0.5	–	–	–	–
O=C1Nc2cc(/C=C/CNC(=O)c3cccn(Cc4cc(F)c(F)c(F)c4)c3=O)ccc2/C1=C/c1cccs1 [Cpd 198]	1 to 5	–	< 0.5	–	–	–	–
CCNC(=O)c1cnc2[nH]cc(-c3ccc(CNC(=O)c4cccn(Cc5ccc(F)c(F)c5)c4=O)s3)c2c1 [Cpd 41]	< 1	< 1	< 0.5	–	–	–	–
O=C1Nc2cc(/C=C/CNC(=O)c3cccn(Cc4cc(F)c(F)c(F)c4)c3=O)ccc2/C1=C\c1ccccc1 [Cpd 209]	> 5	–	< 0.5	–	–	–	–
O=C(N[C@@H](COc1ccc2[nH]c(=O)[nH]c2c1F)c1ccccc1)c1cccn(Cc2cc(F)c(F)c(F)c2)c1=O [Cpd 177]	< 1	–	< 0.5	–	–	–	–
O=C1Nc2cc(/C=C/CNC(=O)c3cccn(Cc4cc(F)c(F)c(F)c4)c3=O)ccc2/C1=C\c1cccnc1 [Cpd 194]	< 1	–	< 0.5	–	–	–	–
O=C(NCc1nccc(-c2c[nH]c3ncccc23)n1)c1cccn(Cc2ccc(F)c(F)c2)c1=O [Cpd 146]	> 5	1 to 5	< 0.5	–	–	–	–
